Molecules are shown by their SMILES.

Experiment [1] concerns 24-h biofilms of S. epidermidis ATCC 35984. Nature of the experiment: Rabbit subcutaneous S. epidermidis biofilm infection model. In kind it is in vivo, New Zealand White rabbits. To be noted: vancomycin 128 mg/l, local injection at 0, 24, 48 h; 72 h. Here is the method: To test the effectiveness in vivo of H2-74 and H2-81, 24-h biofilms of S. epidermidis grown on polyethylene disks were imbedded subcutaneously into the New Zealand White rabbits and treated with the derivatives for 72 h in a modification of the method used previously (He et al. [2011]). Disks were cut from polyethylene 96-well plates (8 mm diameter, 1 mm thickness), sterilized with 75 % ethanol and placed in a Petri dish (100 mm diameter). An overnight culture of S. epidermidis ATCC 35984 (20 ml) was inoculated into the dish and incubated at 37 °C for 24 h. The disks covered with biofilms were then implanted subcutaneously in female New Zealand White rabbits (2.0–2.5 kg) that had been anesthetized with pentobarbital sodium (5 mg/kg i.v.). Four incisions (10 mm) were made on the back of the rabbit along the spine bilaterally after removal of fur, and the sub cutis was carefully dissected to form a 2-cm × 3-cm cavity. Two biofilm-covered polyethylene disks were implanted into each cavity, and to minimize the effect of between-animal variation, four different treatments were given locally to each rabbit.
Vancomycin (128 mg/l) and 0.1 % DMSO were administered as the controls. Twenty-four hours after the last treatment, the rabbits were euthanized and the implants were taken out with sterile forceps. Biofilms were scraped from the disks, and the viable bacteria were determined by CFU counting, as previously described (He et al. [2011]). All animals were housed and used in compliance with the guidelines of the Institute of Animal Care and Use Committee, and the protocol was approved by the committee.

Experiment [2] deals with S. epidermidis ATCC 35984. In words: Derivatives combined with vancomycin or cefazolin (FIC index). In kind it is cell-based. Particulars: S. epidermidis ATCC 35984. The source says: Combination antimicrobial therapy is widely used to take advantage of different mechanisms of action. It may potentiate the effect of individual antimicrobial agents by synergic action (Bijnsdorp et al. [2011]; Cokol et al. [2011]). The glycopeptide antibiotics, such as vancomycin, can bind the peptidoglycan side chains in the cell wall and prevent cross-linking during cell wall synthesis. Vancomycin has been considered to be one of the most reliable therapeutic agents against staphylococcal infections, but it is unable to clear biofilms even at high concentration (128 mg/l) (Climo et al. [1999]; Darouiche et al. [1994]; Tenover et al. [2001]). […] YycGF also plays an important role in the synthesis of peptidoglycan in B. subtilis and S. aureus (Bisicchia et al. [2007]; Dubrac and Msadek [2004]). In a preliminary study, we assessed the effects of the combined application of the derivatives with vancomycin and cefazolin against S. epidermidis ATCC 35984 according to the method of Odds ([2003]) (Cottagnoud et al. [2003]). […] No antagonism was observed between the derivatives and vancomycin or cefazolin (Table S1).
17 Table S1. The derivatives combined with vancomycin or cefazolin against S. epidermidis
Derivatives Antibiotics MIC (mg/L) FICIa Synergyb
Derivative Antibiotic In combination
alone alone (Derivative/Antibiotic)
19 a The FICI was calculated as FIC indexes= (MICderivative A in combination/MICderivative A
20 alone)+(MICantibiotic B in combination/MIC antibiotic B alone).
21 b The interaction between the two antibacterials is noted as follows: FIC index≤0.5,
22 Synergy (+); 0.5<FIC index≤4 (-), No interaction; FIC≥4.0, Antagonism.

In experiment [3] the test system is mature (24-h-old) biofilms of S. epidermidis ATCC 35984. Nature of the experiment: Bacterial viability in mature biofilms by CLSM with Live/Dead staining. It counts as cell-based. To be noted: Staphylococcus epidermidis, ATCC35984, 16 h, read-out: proportion of viable cells in mature biofilms. Here is the method: A diluted overnight culture of the bacteria was inoculated into cell culture glass bottom dishes (WPI, USA) and incubated at 37 °C for 24 h. […] The biofilms were washed with PBS and stained with SYTO9 and propidium iodide (PI), both of which were used at a concentration of 1 μM. SYTO9-stained live cells and PI-stained cells dead in biofilms were visualized by a Leica TCS SP5 confocal laser scanning microscope with a ×63 1.4-NA oil immersion objective. Three-dimensional biofilm images were created by IMARIS 7.0.0 software (Bitplane).

Turning to `CN[C@H](CC(C)C)C(=O)N[C@H]1C(=O)N[C@@H](CC(N)=O)C(=O)N[C@H]2C(=O)N[C@H]3C(=O)N[C@H](C(=O)N[C@H](C(=O)O)c4cc(O)cc(O)c4-c4cc3ccc4O)[C@H](O)c3ccc(c(Cl)c3)Oc3cc2cc(c3O[C@@H]2O[C@H](CO)[C@@H](O)[C@H](O)[C@H]2O[C@H]2C[C@](C)(N)[C@H](O)[C@H](C)O2)Oc2ccc(cc2Cl)[C@H]1O` [vancomycin, reference compound], the “viable bacteria recovered from implanted disks” value in experiment [1] worked out at 5.21 ± 0.24 log10 CFU/cm^2. In addition, the “MIC Antibiotic alone” value in experiment [2] was 4 µg/mL. For the same compound, the viability at 128 µg/mL in experiment [3] was found to be 88.6%.
For `Cc1nnc(SCC2=C(C(=O)O)N3C(=O)[C@@H](NC(=O)Cn4cnnn4)[C@H]3SC2)s1` [cefazolin, reference compound], the “MIC Antibiotic alone” value in experiment [2] is 8 µg/mL.

These data come from article PMC4057637, “Efficacy of novel antibacterial compounds targeting histidine kinase YycG protein” (Applied Microbiology and Biotechnology, 2014).
